Measured values published in US20180105793A1, “DEVICE WITH MULTIPLE MICROENVIRONMENTS AND METHODS THEREOF” (WASHINGTON UNIVERSITY, priority 2016, published 2018).
Entries after “also recorded” stand apart in the source; their conditions may differ.

Key:
MCF10A cells [1] = test: Collective cell migration assay on modular polyacrylamide (mPA) dual-stiffness substrate; assay type: cell-based, Human
Description: Human mammary epithelial non-tumorigenic MCF10A cells were cultured in DMEM-F12 (GE Healthcare Life Sciences), supplemented with 5% horse serum (Invitrogen), 20 ng/mL epidermal growth factor (EGF, Miltenyi Biotec Inc), […] hydrocortisone (Sigma-Aldrich), 100 ng/mL cholera toxin (Sigma-Aldrich), 10 μg/mL insulin (Sigma-Aldrich), and 1% (v/v) penicillin-streptomycin (Sigma-Aldrich). Tumorigenic mammary epithelial MCF7 cells were grown in DMEM (Sigma-Aldrich) containing 10% fetal bovine serum (FBS), 1% (v/v) penicillin-streptomycin (Sigma-Aldrich), and 1% non-essential amino acids (0.1 mM). Human epidermoid carcinoma A431 cells were grown in DMEM (Sigma-Aldrich) containing 10% fetal bovine serum (FBS), 1% (v/v) penicillin-streptomycin (Sigma-Aldrich), 1% sodium pyruvate (Sigma-Aldrich), 1% sodium bicarbonate (Sigma-Aldrich), and 1% non-essential amino acids (0.1 mM). A PDMS stencil was designed and fabricated with a rectangular opening in the center, restricting the culture of epithelial monolayer within the central module (primary ECM) of mPA substrate (see e.g., FIG. 13A). PDMS stencils were air-dried, cleaned with 70% ethanol, and sterilized under UV light for 2 h. Afterwards, stencils were passivated overnight, with a sterile solution of 1% Pluronic and 1% Bovine serum albumin (BSA) in Phosphate buffered saline (PBS) to avoid cell adhesion, and carefully positioned on the PA gels. Cell suspension with 2×10^4 cells was dispensed into the PDMS reservoir covering the primary ECM region and left to grow for a prescribed duration of priming (1, 2, or 3 days) at 37° C. in a 5% CO2 humidified incubator. After this incubation period, the PDMS stencil was lifted off to allow cell sheet to migrate into the adjoining secondary ECM. Additional media was added to each well. For proliferation inhibition experiments, cells were treated with 2 mM thymidine (Sigma-Aldrich) after at least 6 h of cell seeding, to allow adequate attachment of cells to the substrate. For calcium chelation experiments, cells were incubated with 4 mM of EGTA (Sigma-Aldrich) after 3-day priming. […] Subsequently, coordinates of the leading edge were imported into a custom-made program in MATLAB and its advancement was calculated by averaging the distance of each point on the leading edge from the primary-secondary ECM interface. […] Cell migration tracks were subsequently analyzed to obtain migration speed and velocity angle distribution. Migration speed was calculated as a ratio between the sum of distances traveled by the cell between each time point and the total time. For each time interval, the angle between instantaneous velocity vector and the x axis was calculated and plotted the angle distribution for the entire migration tracking period.

MCF10A cells [2] = test: Immunofluorescent staining for E-cadherin (cell-cell junctions); assay type: cell-based, Human; settings: 4 mM EGTA vs untreated

Structure (SMILES) | memory-dependent migration of the leading edge (MCF10A cells [1]; MCF10A monolayer, 4 mM EGTA after 3-day priming) | cell-cell communication / cell-cell junctions (E-cadherin images) (MCF10A cells [2]) | trend of mechanical memory-dependent migration (MCF10A cells [1]; MCF10A monolayer, 2 mM thymidine (proliferation inhibition)) | cell migration speeds (leading edge) (MCF10A cells [1]; MCF10A monolayer, 2 mM thymidine (proliferation inhibition), secondary ECM after priming, vs untreated cells) | cell spreading (spreading area of individual cells in the secondary ECM) (MCF10A cells [1]; MCF10A, 2 mM thymidine, with vs without proliferation inhibition)
O=C(O)CN(CCOCCOCCN(CC(=O)O)CC(=O)O)CC(=O)O [EGTA] | preserved | disrupts cell-cell communication; also recorded: dysfunctional cell-cell junctions |  |  | 
Cc1cn([C@H]2C[C@H](O)[C@@H](CO)O2)c(=O)[nH]c1=O [thymidine] |  |  | held true | increased | increased spreading
